Laboratory results taken from publication PMC7833758, “Characterization of fructooligosaccharide metabolism and fructooligosaccharide-degrading enzymes in human commensal butyrate producers” (Gut Microbes, 2021).

Target: T1, R.intestinalis-GH32 (Roseburia intestinalis, UniProt C7G9C0)
T1 construct: gene sacC; expressed from pET28a in E. coli BL21(DE3), cell-free extract; intracellular; cluster 3, only GH32 of the strain
T1 sequence (C7G9C0 1-563): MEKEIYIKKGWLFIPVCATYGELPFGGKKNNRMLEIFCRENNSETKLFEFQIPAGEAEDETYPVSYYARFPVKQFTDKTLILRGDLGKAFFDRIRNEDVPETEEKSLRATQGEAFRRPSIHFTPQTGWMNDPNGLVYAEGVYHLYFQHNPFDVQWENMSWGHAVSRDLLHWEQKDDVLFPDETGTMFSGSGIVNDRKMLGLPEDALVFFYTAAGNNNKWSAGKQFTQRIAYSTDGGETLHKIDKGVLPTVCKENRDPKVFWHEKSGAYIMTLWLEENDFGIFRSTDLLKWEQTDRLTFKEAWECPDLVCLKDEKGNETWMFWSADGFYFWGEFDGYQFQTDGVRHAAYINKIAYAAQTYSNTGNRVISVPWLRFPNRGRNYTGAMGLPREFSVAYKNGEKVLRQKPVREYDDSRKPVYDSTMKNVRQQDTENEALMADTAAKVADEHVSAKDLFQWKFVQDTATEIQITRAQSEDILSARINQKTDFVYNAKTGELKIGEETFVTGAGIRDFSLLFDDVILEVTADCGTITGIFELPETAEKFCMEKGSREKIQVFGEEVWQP
Assay: degradation by E. coli cell-free extract
Format: biochemical

Row | Compound | degradation by E. coli cell-free extract
1 | OC[C@H]1O[C@@](CO)(OC[C@@]2(O[C@H]3O[C@H](CO)[C@@H](O)[C@H](O)[C@H]3O)O[C@H](CO)[C@@H](O)[C@@H]2O)[C@@H](O)[C@@H]1O [kestose] | cell-free extracts containing R.intestinalis-GH32
2 | OC[C@H]1O[C@@](CO)(OC[C@@]2(OC[C@@]3(O[C@H]4O[C@H](CO)[C@@H](O)[C@H](O)[C@H]4O)O[C@H](CO)[C@@H](O)[C@@H]3O)O[C@H](CO)[C@@H](O)[C@@H]2O)[C@@H](O)[C@@H]1O [nystose] | cell-free extracts containing R.intestinalis-GH32
